Details: Liquid; for viscosity: Concentric cylinders viscometry

C=CCn1cc[n+](C)c1.O=S(=O)([N-]S(=O)(=O)C(F)(F)F)C(F)(F)F
100 kPa
Details | viscosity [mPa·s]
293.15 K | 40.69
303.15 K | 28.08
313.15 K | 20.31
323.15 K | 15.29
333.15 K | 11.91
343.15 K | 9.52
353.15 K | 7.783
363.15 K | 6.489

Details | mass density [kg/m3]
293.15 K, 100 kPa, Vibrating tube method | 1506.1
303.15 K, 100 kPa, Vibrating tube method | 1496
312.5 K, 10000 kPa, Bellows volumetry | 1493.8
312.5 K, 20000 kPa, Bellows volumetry | 1501.1
312.5 K, 30000 kPa, Bellows volumetry | 1508
312.5 K, 40000 kPa, Bellows volumetry | 1514.7
312.5 K, 50000 kPa, Bellows volumetry | 1521
312.5 K, 60000 kPa, Bellows volumetry | 1527.1
312.5 K, 70000 kPa, Bellows volumetry | 1533.1
312.5 K, 80000 kPa, Bellows volumetry | 1538.8
312.5 K, 90000 kPa, Bellows volumetry | 1544.2
312.5 K, 100000 kPa, Bellows volumetry | 1549.5
312.5 K, 110000 kPa, Bellows volumetry | 1554.7
312.5 K, 120000 kPa, Bellows volumetry | 1559.7
312.5 K, 130000 kPa, Bellows volumetry | 1564.7
312.5 K, 140000 kPa, Bellows volumetry | 1569.4
312.5 K, 150000 kPa, Bellows volumetry | 1574
312.5 K, 160000 kPa, Bellows volumetry | 1578.6
312.5 K, 170000 kPa, Bellows volumetry | 1583.2
312.5 K, 180000 kPa, Bellows volumetry | 1587.5
312.5 K, 190000 kPa, Bellows volumetry | 1591.8
312.5 K, 200000 kPa, Bellows volumetry | 1596
313.15 K, 100 kPa, Vibrating tube method | 1486
323.15 K, 100 kPa, Vibrating tube method | 1476
332.3 K, 10000 kPa, Bellows volumetry | 1474.5
332.3 K, 20000 kPa, Bellows volumetry | 1482.1
332.3 K, 30000 kPa, Bellows volumetry | 1489.6
332.3 K, 40000 kPa, Bellows volumetry | 1496.7
332.3 K, 50000 kPa, Bellows volumetry | 1503.4
332.3 K, 60000 kPa, Bellows volumetry | 1509.7
332.3 K, 70000 kPa, Bellows volumetry | 1515.8
332.3 K, 80000 kPa, Bellows volumetry | 1521.7
332.3 K, 90000 kPa, Bellows volumetry | 1527.3
332.3 K, 100000 kPa, Bellows volumetry | 1533
332.3 K, 110000 kPa, Bellows volumetry | 1538.5
332.3 K, 120000 kPa, Bellows volumetry | 1543.8
332.3 K, 130000 kPa, Bellows volumetry | 1548.9
332.3 K, 140000 kPa, Bellows volumetry | 1553.7
332.3 K, 150000 kPa, Bellows volumetry | 1558.5
332.3 K, 160000 kPa, Bellows volumetry | 1563.3
332.3 K, 170000 kPa, Bellows volumetry | 1568
332.3 K, 180000 kPa, Bellows volumetry | 1572.5
332.3 K, 190000 kPa, Bellows volumetry | 1576.9
332.3 K, 200000 kPa, Bellows volumetry | 1581.4
333.15 K, 100 kPa, Vibrating tube method | 1466.1
343.15 K, 100 kPa, Vibrating tube method | 1456.3
352.4 K, 10000 kPa, Bellows volumetry | 1455.3
352.4 K, 20000 kPa, Bellows volumetry | 1463.6
352.4 K, 30000 kPa, Bellows volumetry | 1471.5
352.4 K, 40000 kPa, Bellows volumetry | 1479
352.4 K, 50000 kPa, Bellows volumetry | 1486.1
352.4 K, 60000 kPa, Bellows volumetry | 1492.9
352.4 K, 70000 kPa, Bellows volumetry | 1499.3
352.4 K, 80000 kPa, Bellows volumetry | 1505.6
352.4 K, 90000 kPa, Bellows volumetry | 1511.4
352.4 K, 100000 kPa, Bellows volumetry | 1517.2
352.4 K, 110000 kPa, Bellows volumetry | 1522.8
352.4 K, 120000 kPa, Bellows volumetry | 1528.3
352.4 K, 130000 kPa, Bellows volumetry | 1533.5
352.4 K, 140000 kPa, Bellows volumetry | 1538.7
352.4 K, 150000 kPa, Bellows volumetry | 1543.7
352.4 K, 160000 kPa, Bellows volumetry | 1548.5
352.4 K, 170000 kPa, Bellows volumetry | 1553.3
352.4 K, 180000 kPa, Bellows volumetry | 1558
352.4 K, 190000 kPa, Bellows volumetry | 1562.6
352.4 K, 200000 kPa, Bellows volumetry | 1567.1
353.15 K, 100 kPa, Vibrating tube method | 1446.5
363.15 K, 100 kPa, Vibrating tube method | 1436.8
372.5 K, 10000 kPa, Bellows volumetry | 1436.7
372.5 K, 20000 kPa, Bellows volumetry | 1445.3
372.5 K, 30000 kPa, Bellows volumetry | 1453.7

From the NIST ThermoML archive (doi:10.1021/acs.jced.7b00773)
